{"source": "patent US10654895B2", "about": "“Polypeptide, DNA molecule encoding the polypeptide, vector, preparation method and use” (WUHAN MORE BIOTECHNOLOGY CO., LTD., priority 2013, dated 2020)", "key": {"[1]": {"system": "Clostridium tetani", "format": "cell-based"}, "[2]": {"system": "Clostridium perfringens", "format": "cell-based"}, "[3]": {"system": "Bacteroides fragilis", "assay": "Bacteriostasis experiment on anaerobic bacterium, 96-well plate MIC", "format": "cell-based"}, "[4]": {"system": "M. tuberculosis", "assay": "MIC test by the third party", "format": "cell-based, Mycobacterium tuberculosis"}, "[5]": {"system": "Escherichia coli"}, "[6]": {"system": "Staphylococcus aureus"}, "[7]": {"system": "Methicillin-resistant Staphylococcus aureus (MRSA)"}, "[8]": {"system": "methicillin-resistant coagulase-negative staphylococci (MRSCNS)"}, "[9]": {"system": "methicillin-sensitive coagulase-negative staphylococci (MSSCNS)"}, "[10]": {"system": "S. pneumoniae"}, "[11]": {"system": "S. agalactiae"}, "[12]": {"system": "Streptococcus hemolyticus / S. pyogenes (β-hemolytic streptococcus)", "details": "for Minimum inhibitory concentration MIC: test by the third party"}, "[13]": {"system": "E. faecium"}, "[14]": {"system": "E. faecalis"}, "[15]": {"system": "Enterococcus"}, "[16]": {"system": "Neisseria meningitidis", "details": "N. meningitidis"}, "[17]": {"system": "Neisseria gonorrhoeae", "details": "N. gonorrhoeae"}, "[18]": {"system": "Shigella dysentery (dysentery bacilli)"}, "[19]": {"system": "Salmonella typhimurium"}, "[20]": {"system": "Klebsiella pneumoniae", "details": "K. pneumoniae"}, "[21]": {"system": "K. oxytoca"}, "[22]": {"system": "Citrobacter"}, "[23]": {"system": "E. cloacae"}, "[24]": {"system": "Serratia fonticola", "details": "S. fonticola"}, "[25]": {"system": "Corynebacterium diphtheriae", "details": "C. diphtheriae"}, "[26]": {"system": "Corynebacterium acnes", "details": "C. acnes"}, "[27]": {"system": "Pseudomonas aeruginosa"}, "[28]": {"system": "Acinetobacter baumannii", "details": "A. baumannii (clinically isolated strain, 2 strains in Table 3)"}, "[29]": {"system": "Bordetella pertussis", "details": "B. pertussis"}, "[30]": {"system": "Haemophilus influenza", "details": "H. influenzae"}, "[31]": {"system": "Proteusbacillus vulgaris"}}, "note": "Where “and” joins values, the source holds several entries; their conditions need not be identical. Equal entries are not always repeated. Where two headings read alike, the source gives them in different places. No end group written: not given here."}
{"sequence": "FIRIARLLRIF [Ctryamp, FIRIARLLRIF]", "values": [{"measurement": "Minimum inhibitory concentration MIC", "setting": "[1]", "value": 25, "unit": "µg/mL"}, {"measurement": "Minimum inhibitory concentration MIC", "setting": "[2]", "value": 25, "unit": "µg/mL"}, {"measurement": "Minimum inhibitory concentration MIC", "setting": "[3]", "value": 12.5, "unit": "µg/mL"}, {"measurement": "Minimum inhibitory concentration MIC", "setting": "[4]", "value": 25, "unit": "µg/mL"}, {"measurement": "Minimum inhibitory concentration MIC", "setting": "[5]; ATCC25922 (non-ESBLs-producing), test by the third party", "value": 4, "unit": "µg/mL"}, {"measurement": "Minimum inhibitory concentration MIC", "setting": "[5]; ATCC35218 (ESBLs-producing), test by the third party", "value": 4, "unit": "µg/mL"}, {"measurement": "Minimum inhibitory concentration MIC", "setting": "[5]; E. coli ATCC25922 (standard strain)", "value": 6.25, "unit": "µg/mL"}, {"measurement": "Minimum inhibitory concentration MIC", "setting": "[5]; E. coli clinically isolated strain, 8 strains", "value": "6.25 to 12.5", "unit": "µg/mL"}, {"measurement": "Minimum inhibitory concentration MIC", "setting": "[5]; ESBLs-producing E. coli, 10 strains, test by the third party", "value": "4 to 8", "unit": "µg/mL"}, {"measurement": "Minimum inhibitory concentration MIC", "setting": "[5]; Escherichia coli, strain not specified (Table 8)", "value": "6.25 to 12.5 µg/mL and 6.25 µg/mL"}, {"measurement": "inhibition rate", "setting": "[5]; at 6.25 μg/mL, Escherichia coli CCTCCAB94012", "value": 100, "unit": "%"}, {"measurement": "Minimum inhibitory concentration MIC", "setting": "[5]; non-ESBLs-producing E. coli, 4 strains, test by the third party", "value": "4 to 8", "unit": "µg/mL"}, {"measurement": "Minimum inhibitory concentration MIC", "setting": "[5]; standard Escherichia coli (Table 2)", "value": 12.5, "unit": "µg/mL"}, {"measurement": "Minimum inhibitory concentration MIC", "setting": "[6]; S. aureus ATCC 29213, test by the third party", "value": 8, "unit": "µg/mL"}, {"measurement": "Minimum inhibitory concentration MIC", "setting": "[6]; S. aureus clinically isolated strain, 17 strains", "value": "1.63 to 6.25", "unit": "µg/mL"}, {"measurement": "Minimum inhibitory concentration MIC", "setting": "[6]; S. aureus standard strain ATCC25923", "value": 6.25, "unit": "µg/mL"}, {"measurement": "inhibition rate", "setting": "[6]; at 6.25 μg/mL, Staphylococcus aureus CCTCCAB94004", "value": 100, "unit": "%"}, {"measurement": "Minimum inhibitory concentration MIC", "setting": "[6]; standard Staphylococcus aureus (Table 2)", "value": 6.25, "unit": "µg/mL"}, {"measurement": "Minimum inhibitory concentration MIC", "setting": "[7]; MRSA, 5 strains", "value": "3.13 to 12.5", "unit": "µg/mL"}, {"measurement": "Minimum inhibitory concentration MIC", "setting": "[7]; MRSA, 11 strains, test by the third party", "value": "4 to 8", "unit": "µg/mL"}, {"measurement": "Minimum inhibitory concentration MIC", "setting": "[7]; Methicillin-resistant Staphylococcus aureus (Table 8)", "value": 6.25, "unit": "µg/mL"}, {"measurement": "Minimum inhibitory concentration MIC", "setting": "[8]; 11 strains, test by the third party", "value": 4, "unit": "µg/mL"}, {"measurement": "Minimum inhibitory concentration", "setting": "[8]; stated jointly with MRSA, 4-8 = test results from the third party", "value": "3.13 to 12.5 µg/mL and 4 to 8 µg/mL"}, {"measurement": "Minimum inhibitory concentration MIC", "setting": "[9]; MSSCNS, 5 strains, test by the third party", "value": 4, "unit": "µg/mL"}, {"measurement": "MIC", "setting": "[9]; methicillin-sensitive coagulase-negative staphylococci", "value": "3.13 to 12.5", "unit": "µg/mL"}, {"measurement": "Minimum inhibitory concentration MIC", "setting": "[10]", "value": 3.13, "unit": "µg/mL"}, {"measurement": "Minimum inhibitory concentration MIC", "setting": "[11]", "value": 25, "unit": "µg/mL"}, {"measurement": "Minimum inhibitory concentration MIC", "setting": "[12]; Erythromycin-resistant S. pyogenes, 11 strains", "value": "8 to 16", "unit": "µg/mL"}, {"measurement": "Minimum inhibitory concentration MIC", "setting": "[12]; Erythromycin-sensitive S. pyogenes, 4 strains", "value": 16, "unit": "µg/mL"}, {"measurement": "Minimum inhibitory concentration MIC", "setting": "[12]; Streptococcus ATCC 19615 (standard strain)", "value": 8, "unit": "µg/mL"}, {"measurement": "MIC", "setting": "[12]; Streptococcus hemolyticus", "value": "8 to 16", "unit": "µg/mL"}, {"measurement": "Minimum inhibitory concentration MIC", "setting": "[13]", "value": 25, "unit": "µg/mL"}, {"measurement": "Minimum inhibitory concentration MIC", "setting": "[14]", "value": 50, "unit": "µg/mL"}, {"measurement": "MIC", "setting": "[15]", "value": 6.25, "unit": "µg/mL"}, {"measurement": "Minimum inhibitory concentration MIC", "setting": "[16]", "value": 6.25, "unit": "µg/mL"}, {"measurement": "Minimum inhibitory concentration MIC", "setting": "[17]", "value": 6.25, "unit": "µg/mL"}, {"measurement": "Minimum inhibitory concentration MIC", "setting": "[18]", "value": "6.25 µg/mL and 6.5 µg/mL"}, {"measurement": "Minimum inhibitory concentration MIC", "setting": "[19]", "value": 12.5, "unit": "µg/mL"}, {"measurement": "Minimum inhibitory concentration MIC", "setting": "[20]", "value": 25, "unit": "µg/mL"}, {"measurement": "Minimum inhibitory concentration MIC", "setting": "[21]", "value": 12.5, "unit": "µg/mL"}, {"measurement": "Minimum inhibitory concentration MIC", "setting": "[22]", "value": 12.5, "unit": "µg/mL"}, {"measurement": "Minimum inhibitory concentration MIC", "setting": "[23]", "value": 12.5, "unit": "µg/mL"}, {"measurement": "Minimum inhibitory concentration MIC", "setting": "[24]", "value": 12.5, "unit": "µg/mL"}, {"measurement": "Minimum inhibitory concentration MIC", "setting": "[25]", "value": 3.13, "unit": "µg/mL"}, {"measurement": "Minimum inhibitory concentration MIC", "setting": "[26]", "value": 3.13, "unit": "µg/mL"}, {"measurement": "Minimum inhibitory concentration MIC", "setting": "[27]; P. aeruginosa ATCC27853 (standard strain), test by the third party", "value": 8, "unit": "µg/mL"}, {"measurement": "Minimum inhibitory concentration MIC", "setting": "[27]; P. aeruginosa IPM-R strain, 8 strains, test by the third party", "value": "8 to 16", "unit": "µg/mL"}, {"measurement": "Minimum inhibitory concentration MIC", "setting": "[27]; P. aeruginosa IPM-S strain, 4 strains, test by the third party", "value": "8 to 16", "unit": "µg/mL"}, {"measurement": "Minimum inhibitory concentration MIC", "setting": "[27]; Pseudomonas aeruginosa, strain not specified (Table 8)", "value": 8, "unit": "µg/mL"}, {"measurement": "Minimum inhibitory concentration MIC", "setting": "[28]", "value": 12.5, "unit": "µg/mL"}, {"measurement": "Minimum inhibitory concentration MIC", "setting": "[29]", "value": 3.13, "unit": "µg/mL"}, {"measurement": "Minimum inhibitory concentration MIC", "setting": "[30]", "value": 3.13, "unit": "µg/mL"}, {"measurement": "MIC", "setting": "[31]", "value": 6.25, "unit": "µg/mL"}]}
